# Reference: patent US20050095196A1, “Method for using potassium channel agonists for delivering a medicant to an abnormal brain region and/or a malignant tumor” (priority 2003, published 2005)
# Entries after “also recorded” stand apart in the source; their conditions may differ. Structures can show the parent of a compound that is named as a salt.
# Key:
# [1] = tested on: blood-tumor barrier of RG2 glioma tissue; experiment: Unidirectional transfer constant Ki for [14C]AIB across the blood-tumor barrier, quantitative autoradiography after intracarotid infusion; format: in vivo, Wistar rats; conditions: for unidirectional transport constant Ki for [14C]α-aminoisobutyric acid (AIB) across the blood-tumor barrier: RG2 glioma-bearing Wistar rats, intracarotid 7.5 μg kg^−1 min^−1 for 15 minutes
# Text: Malignant Cell Line and Tumor Implantation. A rat glioma cell line, RG2, was used for implantation of experimental brain tumors in Wistar rats. The techniques for RG2 cell propagation and maintenance in tissue culture have been described (Sugita, M. and Black, K. L., Cyclic GMP-specific phosphodiesterase inhibition and intracarotid bradykinin infusion enhances permeability into brain tumors, Cancer Res. 58(5):914-20 [1998]; Inamura et al. [1994]; Nakano, S. et al., Increased brain tumor microvessel permeability after intracarotid bradykinin infusion is mediated by nitric oxide, Cancer Res. 56(17):4027-31 [1996]). Briefly, RG2 cells derived from a rat glioma are kept frozen until use, then are thawed and maintained in a monolayer culture in F12 medium with 10% calf serum.
# The Wistar rats (approximately 140-160 g body weight) were anesthetized with intra-peritoneal ketarnine (50 mg/kg), and glial cells (1×10^5) were implanted into the right hemisphere, but not the contralateral hemisphere, by intracerebral injection suspended in 5 μL F12 medium,(1-2% methylcellulose) by.a Hamilton syringe. The implantation coordinates were 3-mm lateral to the bregrna and 4.5 mm deep to the dural surface.
# Intracarotid Infusion of Potassium Channel Activators. Seven days after implantation of RG2 cells, the rats were anesthetized as described above and prepared for permeability studies. Animals were infused with either NS-1619 (a selective large conductance Ca^2+- activated K^+ channel activator; […]; 5% (v/v) ethanol. Ethanol (25% [v/v]) was used to dissolve. the potassium channel agonists before.dilution in PBS. For blood volume studies, 5 and 14 minutes after the start of the intracarotid infusion of potassium channel agonist compounds, [^14C] Dextran (100 μCi/kg; Dupont-New England Nuclear Co., Boston, Mass.) was injected as an intravenous bolus and maintained for 1 minute and 10 minutes to obtain two different time points. For regional permeability studies, 5 minutes after the start of the intracarotid infusion of vasoactive compounds, 100 μCi/kg of [^14C]α-aminoisobutyric acid (Dupont-New England Nuclear Colo., Boston, Mass.) was injected as an intravenous bolus. A peristaltic withdrawal pump was used to withdraw femoral arterial blood at a constant rate of 0.083 mL/min immediately after the injection of the tracer to determine serum radioactivity. Fifteen minutes after the intracarotid infusion, rat decapitated and the brain rapidly removed and frozen for quantitative autoradiography.
# Unidirectional Transport Constant (Ki). The unidirectional transfer constant Ki for [^14C]α-aminoisobutyric acid was measured in normal tissue and tumor tissue as an indicator of permeability across the blood-tumor and blood-brain barriers. Quantitative autbradiography was. used to obtain Ki values (μL g^−1min^−1). The initial rate for blood-to-brain transfer was calculated using a previously described equation. (Ohno, K, et al., Lower limits of cerebrovascular permeability to nonelectrolytes in the conscious rat, Am. J. Physiol. 235(3):H299-307, [1978]; Inamura, T., et al., Bradykinin selectively opens blood-tumor barrier in experimental brain rumors, J. Cereb. Flow Metab. 14(5):862-70 [1994]). Quantitative data were analyzed using, two group t-test and two-group Fisher's-exact test of equal proportions or equal means (equal numbers) at 90% power requires a minimum of 6 animals in each group to achieve statistical significance. Multiple treatment groups were compared with control group by ANOVA and P values determined by post-hoc Bonferroni test.
# Dose-dependence studies. NS-1619 was dissolved in 25% ethanol and diluted with PBS to obtain various concentrations for infusion. […]
# [2] = tested on: brain tumor capillaries; conditions: intracarotid infusion, cited from earlier work
# [3] = cited from earlier work
# [4] = Arterial blood pressure monitored during intracarotid infusion; format: in vivo; conditions: rats; higher doses (100 and 110 μg/kg/min)
# Description: Dose-dependence studies. NS-1619 was dissolved in 25% ethanol and diluted with PBS to obtain various concentrations for infusion. NS-1619 was administered by intracarotid infusion (dose rates: 0, 13, 26.5, 53, 80, 100 and 110 μg kg^−1 min^−1; all at 53.3. μL/min) to RG2 glioma-bearing rats to determine a dose that produces increased permeability (Ki) of (^14C]-AIB, which was administered intravenously. Ki determined as described above. Physiological parameters were monitored during the experiments.
molecule,measurement,setting,value
"IBTX: specific KCa channel inhibitor, iberiotoxin (QFTDVDCSVSKECWSVCKDLFGVDRGKCMGKKCRCYQ; Iberiotoxin; UniProt P24663 1-37, looked up)","brain-tumor barrier permeability of abnormal capillaries, IBTX alone","[1]; IBTX 2.3 μg kg^−1 min^−1, 15 minutes, n=3",did not affect
same,effect of IBTX co-infusion on NS-1619-induced increase of permeability (Ki),"[1]; IBTX 2.3 μg kg^−1 min^−1 with NS-1619 26.5 μg kg^−1 min^−1, n=3, P<0.001 vs NS-1619-treated group",decreased NS-1619-induced increase of permeability
"CCCCC/C=C\C\C=C/C=C/C=C/[C@@H](SC[C@H](NC(=O)CC[C@H](N)C(=O)O)C(=O)NCC(=O)O)[C@@H](O)CCCC(=O)O [LTC4, leukotriene C4]",permeability in normal brain capillaries,[2],without affecting the permeability
same,permeability in brain tumor capillaries,[2]; effect limited to small molecules,selectively increases the permeability
"CC(N/C(=N\C#N)Nc1ccncc1)C(C)(C)C (racemic) [pinacidil, (±)-N-cyano-N′-4-pyridinyl-N″-(1,2,2-trimethylpropyl)-guanidine]",solubility in ethanol,[3]; ethanol,14 mg/mL
same,solubility in water,[3],insoluble in water; also recorded: not easily dissolved in water
Nc1cc(N2CCCCC2)nc(N)[n+]1OS(=O)(=O)[O-] [minoxidil sulfate],solubility in water,[3],not easily dissolved in water
same,unidirectional transport constant Ki for [14C]α-aminoisobutyric acid (AIB) across the blood-tumor barrier,[1],significantly increased
CC1=NS(=O)(=O)c2cc(Cl)ccc2N1 [diazoxide],solubility in water,[3],not easily dissolved in water
"O=c1[nH]c2cc(C(F)(F)F)ccc2n1-c1cc(C(F)(F)F)ccc1O [NS-1619, 1,3-dihydro-1-[2-hydroxy-5-(trifluoromethyl)phenyl]-5-(trifluoromethyl)-2H-benzimidazol-2-one]",solubility in water,[3],not easily dissolved in water
same,arterial blood pressure,[4],a significant drop in the arterial blood pressure
same,"Ki for [14C]AIB in RG2 tumor, NS-1619 26.5 μg kg^−1 min^−1 vs PBS with or without 5% ethanol","[1]; 15 minutes, n=8, P<0.001",Increase of Ki
same,unidirectional transport constant Ki for [14C]α-aminoisobutyric acid (AIB) across the blood-tumor barrier,[1],significantly increased
same,dose-response of Ki for [14C]AIB in RG2 glioma capillaries,"[1]; intracarotid dose rates 0, 13, 26.5, 53, 80, 100 and 110 μg kg^−1 min^−1",increasing the dose of NS-1619 results in an increase
